Results taken from ChEMBL document CHEMBL5291721, “A preclinical secondary pharmacology resource illuminates target-adverse drug reaction associations of marketed drugs” (Nat Commun, 2023).

What was measured:
[1] = biological target: T1, 5-hydroxytryptamine receptor 2B (Homo sapiens, UniProt P41595); type: functional, cell-based
[2] = biological target: Sodium-dependent noradrenaline transporter (Homo sapiens, UniProt P23975)
Adenosine receptor A2a = Adenosine receptor A2a (Homo sapiens, UniProt P29274)
[3] = biological target: T1, 5-hydroxytryptamine receptor 2B; type: functional, cell-based; remark: listed apart in the source
[4] = biological target: cGMP-inhibited 3',5'-cyclic phosphodiesterase 3A (Homo sapiens, UniProt Q14432); type: functional
Sequence of cGMP-inhibited 3',5'-cyclic phosphodiesterase 3A (Q14432 whole entry): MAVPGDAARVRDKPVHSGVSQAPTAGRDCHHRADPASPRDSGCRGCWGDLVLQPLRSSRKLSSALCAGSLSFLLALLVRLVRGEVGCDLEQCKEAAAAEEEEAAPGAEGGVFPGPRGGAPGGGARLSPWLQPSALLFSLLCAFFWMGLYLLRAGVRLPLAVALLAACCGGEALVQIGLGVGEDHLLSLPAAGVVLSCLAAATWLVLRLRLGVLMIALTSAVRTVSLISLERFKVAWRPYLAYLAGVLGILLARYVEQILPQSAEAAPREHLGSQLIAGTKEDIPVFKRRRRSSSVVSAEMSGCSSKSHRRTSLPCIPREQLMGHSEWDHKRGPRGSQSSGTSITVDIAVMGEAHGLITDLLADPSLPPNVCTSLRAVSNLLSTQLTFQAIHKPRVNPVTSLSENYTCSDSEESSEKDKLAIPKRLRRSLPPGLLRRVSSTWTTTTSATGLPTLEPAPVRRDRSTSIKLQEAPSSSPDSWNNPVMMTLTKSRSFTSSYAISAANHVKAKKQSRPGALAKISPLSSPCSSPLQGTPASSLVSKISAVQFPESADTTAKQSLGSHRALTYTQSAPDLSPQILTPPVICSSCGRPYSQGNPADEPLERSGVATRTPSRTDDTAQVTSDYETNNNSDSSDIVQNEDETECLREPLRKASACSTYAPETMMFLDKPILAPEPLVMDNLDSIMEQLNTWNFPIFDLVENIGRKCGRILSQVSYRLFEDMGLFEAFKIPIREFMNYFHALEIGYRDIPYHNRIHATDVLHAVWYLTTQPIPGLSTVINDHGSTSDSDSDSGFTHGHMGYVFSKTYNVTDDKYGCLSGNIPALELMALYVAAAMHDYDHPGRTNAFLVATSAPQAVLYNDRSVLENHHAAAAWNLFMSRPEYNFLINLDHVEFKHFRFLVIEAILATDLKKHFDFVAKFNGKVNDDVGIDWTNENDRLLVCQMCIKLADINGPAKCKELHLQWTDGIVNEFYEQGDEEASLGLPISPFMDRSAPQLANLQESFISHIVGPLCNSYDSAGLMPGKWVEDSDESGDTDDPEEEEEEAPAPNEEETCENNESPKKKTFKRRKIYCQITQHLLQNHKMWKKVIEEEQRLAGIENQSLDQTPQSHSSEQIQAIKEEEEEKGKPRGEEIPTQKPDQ

[5] = biological target: T2, Neuropeptide Y receptor type 1 (Homo sapiens, UniProt P25929)
T2 sequence (P25929 whole entry): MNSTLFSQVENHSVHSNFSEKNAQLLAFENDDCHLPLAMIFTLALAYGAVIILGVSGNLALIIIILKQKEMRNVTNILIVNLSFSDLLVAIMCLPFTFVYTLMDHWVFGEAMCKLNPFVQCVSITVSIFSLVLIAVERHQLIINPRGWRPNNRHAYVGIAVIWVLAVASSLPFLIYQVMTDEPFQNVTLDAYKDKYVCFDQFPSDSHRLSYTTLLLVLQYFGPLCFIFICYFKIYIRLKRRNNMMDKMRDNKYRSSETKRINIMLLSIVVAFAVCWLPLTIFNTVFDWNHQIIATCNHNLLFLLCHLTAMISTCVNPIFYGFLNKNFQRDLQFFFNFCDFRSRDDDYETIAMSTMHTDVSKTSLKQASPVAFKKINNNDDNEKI

[6] = biological target: Voltage-dependent L-type calcium channel subunit alpha-1C (Rattus norvegicus, UniProt P22002); type: functional
Sequence of Voltage-dependent L-type calcium channel subunit alpha-1C (P22002 whole entry): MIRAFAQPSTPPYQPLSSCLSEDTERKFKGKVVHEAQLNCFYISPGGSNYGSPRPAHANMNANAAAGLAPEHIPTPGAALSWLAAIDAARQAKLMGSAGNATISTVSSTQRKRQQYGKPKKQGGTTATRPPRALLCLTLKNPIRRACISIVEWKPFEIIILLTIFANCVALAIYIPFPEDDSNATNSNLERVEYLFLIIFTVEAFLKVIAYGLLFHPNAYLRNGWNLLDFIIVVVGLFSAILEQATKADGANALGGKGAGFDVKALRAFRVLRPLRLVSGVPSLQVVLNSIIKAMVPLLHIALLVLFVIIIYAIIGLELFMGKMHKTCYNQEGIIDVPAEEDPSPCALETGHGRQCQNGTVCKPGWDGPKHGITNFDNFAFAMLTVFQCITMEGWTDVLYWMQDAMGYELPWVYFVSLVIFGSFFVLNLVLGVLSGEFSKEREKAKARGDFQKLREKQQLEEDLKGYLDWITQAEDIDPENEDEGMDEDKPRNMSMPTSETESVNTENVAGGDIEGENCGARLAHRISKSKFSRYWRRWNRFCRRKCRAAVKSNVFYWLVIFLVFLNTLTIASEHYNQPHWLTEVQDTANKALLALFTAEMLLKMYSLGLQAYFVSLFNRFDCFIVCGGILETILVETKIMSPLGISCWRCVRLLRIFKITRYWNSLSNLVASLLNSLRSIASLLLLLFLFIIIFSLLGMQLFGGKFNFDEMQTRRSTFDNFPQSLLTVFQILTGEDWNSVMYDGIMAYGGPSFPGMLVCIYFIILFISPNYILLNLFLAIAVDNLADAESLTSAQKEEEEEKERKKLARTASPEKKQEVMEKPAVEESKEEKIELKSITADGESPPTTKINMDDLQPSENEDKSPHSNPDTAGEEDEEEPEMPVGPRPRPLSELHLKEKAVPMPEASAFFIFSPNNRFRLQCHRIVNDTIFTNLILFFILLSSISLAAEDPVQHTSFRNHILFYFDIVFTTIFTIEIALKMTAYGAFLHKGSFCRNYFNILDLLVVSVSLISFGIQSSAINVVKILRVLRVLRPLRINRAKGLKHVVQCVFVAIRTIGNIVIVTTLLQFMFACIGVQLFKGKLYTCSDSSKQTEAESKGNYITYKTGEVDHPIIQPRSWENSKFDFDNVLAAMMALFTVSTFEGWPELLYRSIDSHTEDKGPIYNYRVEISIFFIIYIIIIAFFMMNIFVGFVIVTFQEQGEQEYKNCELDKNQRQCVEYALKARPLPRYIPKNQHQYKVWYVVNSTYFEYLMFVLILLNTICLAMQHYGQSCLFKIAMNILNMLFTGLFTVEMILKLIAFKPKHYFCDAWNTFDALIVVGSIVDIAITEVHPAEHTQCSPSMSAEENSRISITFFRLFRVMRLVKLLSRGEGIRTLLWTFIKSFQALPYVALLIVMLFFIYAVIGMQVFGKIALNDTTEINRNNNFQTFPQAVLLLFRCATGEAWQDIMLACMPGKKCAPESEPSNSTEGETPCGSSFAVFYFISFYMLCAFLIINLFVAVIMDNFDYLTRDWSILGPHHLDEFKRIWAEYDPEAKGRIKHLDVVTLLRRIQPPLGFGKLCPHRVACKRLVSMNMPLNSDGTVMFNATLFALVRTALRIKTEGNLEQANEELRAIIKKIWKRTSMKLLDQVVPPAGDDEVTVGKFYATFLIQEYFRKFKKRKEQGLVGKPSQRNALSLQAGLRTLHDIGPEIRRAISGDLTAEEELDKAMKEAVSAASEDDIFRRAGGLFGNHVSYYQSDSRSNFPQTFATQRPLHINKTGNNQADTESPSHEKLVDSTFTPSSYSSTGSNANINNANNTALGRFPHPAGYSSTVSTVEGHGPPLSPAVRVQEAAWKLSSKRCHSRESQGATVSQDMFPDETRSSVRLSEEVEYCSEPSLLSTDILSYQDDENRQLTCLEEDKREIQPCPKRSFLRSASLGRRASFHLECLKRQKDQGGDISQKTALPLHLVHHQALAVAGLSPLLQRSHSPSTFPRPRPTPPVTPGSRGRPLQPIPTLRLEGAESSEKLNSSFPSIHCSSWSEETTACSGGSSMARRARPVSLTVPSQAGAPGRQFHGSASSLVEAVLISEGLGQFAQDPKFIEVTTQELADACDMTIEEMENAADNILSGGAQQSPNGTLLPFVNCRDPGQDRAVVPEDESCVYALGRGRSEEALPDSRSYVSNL

[7] = biological target: Beta-1 adrenergic receptor (Homo sapiens, UniProt P08588); type: functional
[8] = biological target: T3, Muscarinic acetylcholine receptor M2 (Homo sapiens, UniProt P08172); type: functional, cell-based
T3 sequence (P08172 whole entry): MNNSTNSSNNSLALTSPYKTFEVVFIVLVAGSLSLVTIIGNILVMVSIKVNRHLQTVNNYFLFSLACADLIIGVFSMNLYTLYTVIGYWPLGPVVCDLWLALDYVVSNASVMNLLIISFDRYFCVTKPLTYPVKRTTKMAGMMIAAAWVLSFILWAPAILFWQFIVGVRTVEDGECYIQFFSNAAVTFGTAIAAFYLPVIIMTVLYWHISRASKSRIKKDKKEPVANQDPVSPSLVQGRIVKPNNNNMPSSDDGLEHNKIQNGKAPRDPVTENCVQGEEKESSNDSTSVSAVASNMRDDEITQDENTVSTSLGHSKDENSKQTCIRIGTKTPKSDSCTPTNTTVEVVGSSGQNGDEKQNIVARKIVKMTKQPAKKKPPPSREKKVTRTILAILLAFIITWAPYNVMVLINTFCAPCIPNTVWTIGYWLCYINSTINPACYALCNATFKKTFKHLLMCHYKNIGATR

Histamine H2 receptor = Histamine H2 receptor (Homo sapiens, UniProt P25021); type: functional, cell-based
D(3) dopamine receptor = D(3) dopamine receptor (Homo sapiens, UniProt P35462)
Sequence of D(3) dopamine receptor (P35462 whole entry): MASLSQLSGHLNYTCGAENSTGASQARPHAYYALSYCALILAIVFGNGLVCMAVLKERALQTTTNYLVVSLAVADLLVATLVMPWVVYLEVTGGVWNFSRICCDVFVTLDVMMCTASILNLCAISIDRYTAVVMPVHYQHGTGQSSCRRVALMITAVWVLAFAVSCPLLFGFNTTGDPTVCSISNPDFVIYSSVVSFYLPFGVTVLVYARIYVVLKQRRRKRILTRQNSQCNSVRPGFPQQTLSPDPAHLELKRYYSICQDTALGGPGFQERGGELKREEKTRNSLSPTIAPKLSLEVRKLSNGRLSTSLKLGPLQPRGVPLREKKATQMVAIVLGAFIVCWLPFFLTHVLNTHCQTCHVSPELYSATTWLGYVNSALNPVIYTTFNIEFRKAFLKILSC

[9] = biological target: T3, Muscarinic acetylcholine receptor M2; type: functional, cell-based; remark: listed apart in the source
[10] = biological target: T4, Type-1 angiotensin II receptor (Homo sapiens, UniProt P30556)
T4 sequence (P30556 whole entry): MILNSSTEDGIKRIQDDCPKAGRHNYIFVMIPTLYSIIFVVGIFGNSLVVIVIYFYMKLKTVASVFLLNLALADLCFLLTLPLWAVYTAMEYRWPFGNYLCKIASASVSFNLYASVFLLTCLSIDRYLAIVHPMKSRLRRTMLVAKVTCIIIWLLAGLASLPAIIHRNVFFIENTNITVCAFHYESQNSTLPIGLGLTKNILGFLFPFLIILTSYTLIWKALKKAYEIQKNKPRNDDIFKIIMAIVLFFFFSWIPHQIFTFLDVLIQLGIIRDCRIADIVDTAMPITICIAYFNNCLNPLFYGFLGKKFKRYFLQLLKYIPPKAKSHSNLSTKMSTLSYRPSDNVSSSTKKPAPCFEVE

[11] = biological target: T5, Alpha-2C adrenergic receptor (Homo sapiens, UniProt P18825); type: functional
T5 sequence (P18825 whole entry): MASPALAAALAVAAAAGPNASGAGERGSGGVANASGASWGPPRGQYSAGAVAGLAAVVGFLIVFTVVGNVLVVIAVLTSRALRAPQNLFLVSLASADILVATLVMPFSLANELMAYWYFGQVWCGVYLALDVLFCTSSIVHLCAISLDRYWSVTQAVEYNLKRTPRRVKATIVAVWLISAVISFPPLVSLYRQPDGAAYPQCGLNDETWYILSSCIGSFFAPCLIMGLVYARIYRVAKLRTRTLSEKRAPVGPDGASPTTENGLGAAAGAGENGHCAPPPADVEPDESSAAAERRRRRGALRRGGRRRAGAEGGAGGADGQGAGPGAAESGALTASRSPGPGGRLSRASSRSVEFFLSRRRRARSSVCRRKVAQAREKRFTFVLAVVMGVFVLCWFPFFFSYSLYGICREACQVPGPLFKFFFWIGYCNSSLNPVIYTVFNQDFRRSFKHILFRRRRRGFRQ

Vasopressin V2 receptor = Vasopressin V2 receptor (Homo sapiens, UniProt P30518)
[12] = biological target: T6, Alpha-2A adrenergic receptor (Homo sapiens, UniProt P08913); type: functional, cell-based
T6 sequence (P08913 whole entry): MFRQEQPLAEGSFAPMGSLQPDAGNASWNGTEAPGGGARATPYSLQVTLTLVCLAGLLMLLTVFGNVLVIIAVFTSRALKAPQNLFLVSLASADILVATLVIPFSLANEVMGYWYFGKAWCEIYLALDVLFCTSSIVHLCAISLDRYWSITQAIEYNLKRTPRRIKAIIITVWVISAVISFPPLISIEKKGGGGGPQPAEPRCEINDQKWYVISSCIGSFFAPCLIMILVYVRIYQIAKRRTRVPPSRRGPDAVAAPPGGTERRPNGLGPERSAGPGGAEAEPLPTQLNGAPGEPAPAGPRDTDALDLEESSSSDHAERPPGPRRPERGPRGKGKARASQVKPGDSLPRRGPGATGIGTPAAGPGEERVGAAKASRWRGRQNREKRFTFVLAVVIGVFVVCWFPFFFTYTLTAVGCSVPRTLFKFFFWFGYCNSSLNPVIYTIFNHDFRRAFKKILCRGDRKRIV
Also: assay procedure not described here.

Sequence of Sodium-dependent noradrenaline transporter (P23975 whole entry): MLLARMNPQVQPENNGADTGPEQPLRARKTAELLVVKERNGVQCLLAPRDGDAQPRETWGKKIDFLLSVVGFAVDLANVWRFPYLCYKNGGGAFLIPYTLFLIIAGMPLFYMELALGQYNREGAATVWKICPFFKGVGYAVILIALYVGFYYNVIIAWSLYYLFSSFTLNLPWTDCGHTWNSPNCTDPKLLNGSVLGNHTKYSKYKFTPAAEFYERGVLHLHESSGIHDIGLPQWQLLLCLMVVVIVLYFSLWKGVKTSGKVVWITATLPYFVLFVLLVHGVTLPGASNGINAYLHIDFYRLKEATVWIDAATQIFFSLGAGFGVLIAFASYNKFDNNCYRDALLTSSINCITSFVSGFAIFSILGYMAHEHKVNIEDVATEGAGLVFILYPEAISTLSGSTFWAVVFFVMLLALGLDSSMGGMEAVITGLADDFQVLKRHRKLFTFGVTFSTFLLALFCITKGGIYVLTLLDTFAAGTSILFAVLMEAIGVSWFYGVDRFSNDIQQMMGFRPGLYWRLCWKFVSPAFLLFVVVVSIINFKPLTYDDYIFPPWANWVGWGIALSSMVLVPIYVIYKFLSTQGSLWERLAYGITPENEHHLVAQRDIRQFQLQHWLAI
T1 sequence (P41595 whole entry): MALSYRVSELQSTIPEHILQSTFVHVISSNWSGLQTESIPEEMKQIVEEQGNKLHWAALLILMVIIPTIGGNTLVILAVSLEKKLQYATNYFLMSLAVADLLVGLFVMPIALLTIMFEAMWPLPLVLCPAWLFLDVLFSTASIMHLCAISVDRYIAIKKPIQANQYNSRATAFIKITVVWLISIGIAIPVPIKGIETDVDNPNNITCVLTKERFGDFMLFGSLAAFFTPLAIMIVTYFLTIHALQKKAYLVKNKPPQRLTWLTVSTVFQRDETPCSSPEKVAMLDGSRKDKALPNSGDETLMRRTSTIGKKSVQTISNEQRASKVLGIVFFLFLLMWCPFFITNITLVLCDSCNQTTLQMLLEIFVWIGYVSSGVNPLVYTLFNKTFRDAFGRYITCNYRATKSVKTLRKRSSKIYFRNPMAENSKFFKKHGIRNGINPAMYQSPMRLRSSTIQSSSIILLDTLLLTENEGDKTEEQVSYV

| AC50 [1] | AC50 [2] | AC50 (Adenosine receptor A2a) | AC50 [3] | AC50 [4] | AC50 [5] | AC50 [6] | AC50 [7] | AC50 [8] | AC50 (Histamine H2 receptor) | AC50 (D(3) dopamine receptor) | AC50 [9] | AC50 [10] | AC50 [11] | AC50 (Vasopressin V2 receptor) | AC50 [12] | SMILES |
| --- | --- | --- | --- | --- | --- | --- | --- | --- | --- | --- | --- | --- | --- | --- | --- | --- |
| > 10 µM | > 30 µM | > 30 µM | > 10 µM | > 30 µM | > 30 µM | > 10 µM | > 10 µM | > 10 µM | > 30 µM | > 30 µM | > 10 µM | > 30 µM | > 10 µM | > 30 µM | > 10 µM | CCOC(=O)c1ccc(C#Cc2ccc3c(c2)C(C)(C)CCS3)nc1 [TAZAROTENE] |
| > 30 µM | > 30 µM | > 30 µM | > 30 µM | > 30 µM | > 30 µM | > 30 µM | > 30 µM | > 30 µM | > 30 µM | > 30 µM | > 30 µM | > 30 µM | > 30 µM | > 30 µM | > 30 µM | Cn1c(=O)c2c(ncn2CCOC(=O)C(C)(C)Oc2ccc(Cl)cc2)n(C)c1=O [THEOFIBRATE] |
| > 30 µM | > 30 µM | > 30 µM | > 30 µM | > 30 µM | > 30 µM | > 30 µM | > 30 µM | > 30 µM | > 30 µM | > 30 µM | > 30 µM | > 30 µM | > 30 µM | > 30 µM | > 30 µM | COc1cc(C(=O)NC2CCCNC2)cc(OC)c1OC (centres undefined) [TROXIPIDE] |
| > 10 µM | > 10 µM | > 10 µM | > 10 µM | > 30 µM | > 10 µM | > 10 µM | > 10 µM | > 10 µM | > 10 µM | > 30 µM | > 10 µM | > 10 µM | > 10 µM | > 10 µM | > 10 µM | CC(c1cc2ccccc2s1)N(O)C(N)=O (centres undefined) [ZILEUTON] |
